In patent US20250368649A1, “TETRAHYDROPYRIDOPYRIMIDINE PAN-KRAS INHIBITORS” (Mirati Therapeutics, Inc., priority 2022, published 2025):

Columns and labels:
KRas G12D = KRas G12D (Homo sapiens, UniProt P01116, G12D); assay: biochemical; details: Binding to KRas (IC50 nM) G12D, TR-FRET displacement, KRas G12D
KRas G12V = KRas G12V (Homo sapiens, UniProt P01116, G12V); assay: biochemical; details: Binding to KRas (IC50 nM) G12V, TR-FRET displacement, KRas G12V
KRas G12A = KRas G12A (Homo sapiens, UniProt P01116, G12A); format: binding; details: TR-FRET displacement, read-out: Binding to KRas (IC50 nM) G12A
Sequence of KRas G12A (P01116 1-169 isoform P01116-2 G12A): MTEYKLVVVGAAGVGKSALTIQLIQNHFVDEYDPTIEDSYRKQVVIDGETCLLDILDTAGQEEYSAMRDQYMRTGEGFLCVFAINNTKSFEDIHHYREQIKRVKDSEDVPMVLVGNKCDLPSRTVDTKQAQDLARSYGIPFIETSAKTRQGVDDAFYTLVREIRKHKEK

KRas WT = KRas WT (Homo sapiens, UniProt P01116); assay: KRas binding assay (TR-FRET displacement), KRas WT; details: TR-FRET displacement
Sequence of KRas WT (P01116 1-169 isoform P01116-2): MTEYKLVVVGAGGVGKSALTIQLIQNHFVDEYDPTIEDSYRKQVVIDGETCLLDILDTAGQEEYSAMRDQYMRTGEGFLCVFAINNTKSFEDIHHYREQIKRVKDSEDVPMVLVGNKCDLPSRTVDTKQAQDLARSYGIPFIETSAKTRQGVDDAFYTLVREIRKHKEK

KRas G13D = KRas G13D (Homo sapiens, UniProt P01116, G13D); format: binding; details: TR-FRET displacement, read-out: Binding to KRas (IC50 nM) G13D
Sequence of KRas G13D (P01116 1-169 isoform P01116-2 G13D): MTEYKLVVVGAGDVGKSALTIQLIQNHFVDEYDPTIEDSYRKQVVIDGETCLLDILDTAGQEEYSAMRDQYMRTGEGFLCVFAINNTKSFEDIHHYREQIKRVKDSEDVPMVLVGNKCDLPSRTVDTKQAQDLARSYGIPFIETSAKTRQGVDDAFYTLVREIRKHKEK

KRas G12C = KRas G12C (Homo sapiens, UniProt P01116, G12C); format: binding; details: TR-FRET displacement, read-out: Binding to KRas (IC50 nM) G12C
Sequence of KRas G12C (P01116 1-169 isoform P01116-2 G12C): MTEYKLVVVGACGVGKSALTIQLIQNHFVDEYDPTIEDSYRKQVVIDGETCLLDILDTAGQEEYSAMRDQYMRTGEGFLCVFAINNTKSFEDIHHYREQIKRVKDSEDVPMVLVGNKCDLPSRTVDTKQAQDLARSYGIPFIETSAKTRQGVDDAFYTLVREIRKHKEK

KRas Q61H = KRas Q61H (Homo sapiens, UniProt P01116, Q61H); assay: KRas binding assay (TR-FRET displacement), KRas Q61H; details: TR-FRET displacement
Sequence of KRas Q61H (P01116 1-169 isoform P01116-2 Q61H): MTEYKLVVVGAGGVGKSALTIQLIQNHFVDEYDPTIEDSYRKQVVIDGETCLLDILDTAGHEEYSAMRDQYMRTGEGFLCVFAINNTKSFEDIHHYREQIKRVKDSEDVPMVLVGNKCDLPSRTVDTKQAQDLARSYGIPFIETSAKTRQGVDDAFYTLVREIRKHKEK

KRas G12S = KRas G12S (Homo sapiens, UniProt P01116, G12S); format: binding; details: TR-FRET displacement, read-out: Binding to KRas (IC50 nM) G12S
Sequence of KRas G12S (P01116 1-169 isoform P01116-2 G12S): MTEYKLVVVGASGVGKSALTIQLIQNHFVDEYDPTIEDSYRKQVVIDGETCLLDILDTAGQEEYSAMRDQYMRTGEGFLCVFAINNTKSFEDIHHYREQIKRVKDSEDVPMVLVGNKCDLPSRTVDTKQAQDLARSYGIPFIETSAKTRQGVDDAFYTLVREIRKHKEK

Sequence of KRas G12V (P01116 1-169 isoform P01116-2 G12V): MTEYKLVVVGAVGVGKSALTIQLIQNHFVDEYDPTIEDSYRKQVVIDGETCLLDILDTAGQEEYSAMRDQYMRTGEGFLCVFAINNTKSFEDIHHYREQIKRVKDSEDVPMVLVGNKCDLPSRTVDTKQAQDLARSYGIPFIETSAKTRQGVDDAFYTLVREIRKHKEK
Sequence of KRas G12D (P01116 1-169 isoform P01116-2 G12D): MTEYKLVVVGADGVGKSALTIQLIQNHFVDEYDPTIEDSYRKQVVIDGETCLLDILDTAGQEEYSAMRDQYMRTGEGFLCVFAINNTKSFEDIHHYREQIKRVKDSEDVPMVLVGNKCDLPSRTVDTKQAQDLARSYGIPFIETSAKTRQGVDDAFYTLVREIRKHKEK

IC50 (KRas G12D) [nM] | IC50 (KRas G12V) [nM] | IC50 (KRas G12A) [nM] | IC50 (KRas WT) [nM] | IC50 (KRas G13D) [nM] | IC50 (KRas G12C) [nM] | IC50 (KRas Q61H) [nM] | IC50 (KRas G12S) [nM] | Compound
1260 | 3100 | 7190 | 9330 | 15300 | 4470 | 11500 | 6620 | CCc1cccc2cccc(N3CCc4c(nc(OCC5(CN(C)C)CC5)nc4N4CCn5nnc(CO)c5C4)C3)c12 [Example 517, (5-(2-((1-((dimethylamino)methyl)cyclopropyl)methoxy)-7-(8-ethylnaphthalen-1-yl)-5,6,7,8-tetrahydropyrido[3,4-d]pyrimidin-4-yl)-4,5,6,7-tetrahydro-[1,2,3]triazolo[1,5-a]pyrazin-3-yl)methanol]
2000 | 1560 | 5580 | 5230 | 8140 | 2850 | 5920 | 5480 | CCc1cccc2cccc(N3CCc4c(nc(OCC5(CN(C)C)CC5)nc4N4Cc5nncn5C(C)C4)C3)c12 (stereo not drawn) [Example 519, 1-(1-(((7-(8-ethylnaphthalen-1-yl)-4-(5-methyl-5,6-dihydro-[1,2,4]triazolo[4,3-a]pyrazin-7(8H)-yl)-5,6,7,8-tetrahydropyrido[3,4-d]pyrimidin-2-yl)oxy)methyl)cyclopropyl)-N,N-dimethylmethanamine]
6290 | 13600 | 10500 | 8290 | 7930 | 13500 | 7520 | 11700 | CCc1cccc2cccc(N3CCc4c(nc(OCC5(CN(C)C)CC5)nc4N4CCCC(Cn5cc(C(=O)NC)nn5)C4)C3)c12 (stereo not drawn) [Example 528, 1-((1-(2-((1-((dimethylamino)methyl)cyclopropyl)methoxy)-7-(8-ethylnaphthalen-1-yl)-5,6,7,8-tetrahydropyrido[3,4-d]pyrimidin-4-yl)piperidin-3-yl)methyl)-N-methyl-1H-1,2,3-triazole-4-carboxamide]
7260 | 756 | 649 | 910 | 1150 | 370 | 901 | 700 | CCc1cccc2cccc(N3CCc4c(nc(OCC5(CN(C)C)CC5)nc4N4CCOC(c5n[nH]c(CO)n5)C4)C3)c12 (stereo not drawn) [Example 532, (3-(4-(2-((1-((dimethylamino)methyl)cyclopropyl)methoxy)-7-(8-ethylnaphthalen-1-yl)-5,6,7,8-tetrahydropyrido[3,4-d]pyrimidin-4-yl)morpholin-2-yl)-1H-1,2,4-triazol-5-yl)methanol]
7370 | 3540 | 9380 | 12100 | 18200 | 4900 | 14600 | 9330 | CCc1cccc2cccc(N3CCc4c(nc(OCC5(CN(C)C)CC5)nc4N4Cc5cn[nH]c5CC(C)C4)C3)c12 (stereo not drawn) [Example 534, 1-(1-(((7-(8-ethylnaphthalen-1-yl)-4-(7-methyl-4,6,7,8-tetrahydropyrazolo[4,3-c]azepin-5(1H)-yl)-5,6,7,8-tetrahydropyrido[3,4-d]pyrimidin-2-yl)oxy)methyl)cyclopropyl)-N,N-dimethylmethanamine]
7570 | 4710 | 2980 | 5320 | 6190 | 1830 | 6460 | 5060 | CCc1cccc2cccc(N3CCc4c(nc(OCC5(CN(C)C)CC5)nc4N4CCCC(n5ccc(C)n5)C4)C3)c12 (stereo not drawn) [Example 535, 1-(1-(((7-(8-ethylnaphthalen-1-yl)-4-(3-(3-methyl-1H-pyrazol-1-yl)piperidin-1-yl)-5,6,7,8-tetrahydropyrido[3,4-d]pyrimidin-2-yl)oxy)methyl)cyclopropyl)-N,N-dimethylmethanamine]

Second part, the compound before the results:

Compound | IC50 (KRas G12D) [nM] | IC50 (KRas G12V) [nM] | IC50 (KRas G12A) [nM] | IC50 (KRas WT) [nM] | IC50 (KRas G13D) [nM] | IC50 (KRas G12C) [nM] | IC50 (KRas Q61H) [nM] | IC50 (KRas G12S) [nM]
CCc1cccc2cccc(N3CCc4c(nc(OCC5(CN(C)C)CC5)nc4NCc4c(C)nnn4CC)C3)c12 [Example 518, 2-((1-((dimethylamino)methyl)cyclopropyl)methoxy)-N-((1-ethyl-4-methyl-1H-1,2,3-triazol-5-yl)methyl)-7-(8-ethylnaphthalen-1-yl)-5,6,7,8-tetrahydropyrido[3,4-d]pyrimidin-4-amine] | 1930 | 1790 | 175 | 221 | 249 | 139 | 190 | 161
CCc1cccc2cccc(N3CCc4c(nc(OCC5(CN(C)C)CC5)nc4NCc4nc(C(O)C5CC5)n[nH]4)C3)c12 (stereo not drawn) [Example 520, cyclopropyl(5-(((2-((1-((dimethylamino)methyl)cyclopropyl)methoxy)-7-(8-ethylnaphthalen-1-yl)-5,6,7,8-tetrahydropyrido[3,4-d]pyrimidin-4-yl)amino)methyl)-1H-1,2,4-triazol-3-yl)methanol] | 2460 | 3990 | 4150 | 4610 | 5070 | 2290 | 5940 | 2900
CCc1cccc2cccc(N3CCc4c(nc(OCC5(CN(C)C)CC5)nc4N(C)Cc4nnc5n4CCNC5=O)C3)c12 [Example 529, 3-(((2-((1-((dimethylamino)methyl)cyclopropyl)methoxy)-7-(8-ethylnaphthalen-1-yl)-5,6,7,8-tetrahydropyrido[3,4-d]pyrimidin-4-yl)(methyl)amino)methyl)-6,7-dihydro-[1,2,4]triazolo[4,3-a]pyrazin-8(5H)-one] | 6570 | 3000 | 1380 | 2000 | 2110 | 1200 | 1410 | 1060
CCc1cccc2cccc(N3CCc4c(nc(OCC5(CN(C)C)CC5)nc4NCc4nc(-c5ccncc5)no4)C3)c12 [Example 530, 2-((1-((dimethylamino)methyl)cyclopropyl)methoxy)-7-(8-ethylnaphthalen-1-yl)-N-((3-(pyridin-4-yl)-1,2,4-oxadiazol-5-yl)methyl)-5,6,7,8-tetrahydropyrido[3,4-d]pyrimidin-4-amine] | 6680 | 7530 | 1920 | 2660 | 3470 | 1030 | 3080 | 1070
CCc1cccc2cccc(N3CCc4c(nc(OCC5(CN(C)C)CC5)nc4NCc4nnc(C5CCCO5)[nH]4)C3)c12 (stereo not drawn) [Example 531, 2-((1-((dimethylamino)methyl)cyclopropyl)methoxy)-7-(8-ethylnaphthalen-1-yl)-N-((5-(tetrahydrofuran-2-yl)-4H-1,2,4-triazol-3-yl)methyl)-5,6,7,8-tetrahydropyrido[3,4-d]pyrimidin-4-amine] | 6830 | 5700 | 17200 | 17000 | 24900 | 9540 | 22400 | 19900
CCc1cccc2cccc(N3CCc4c(nc(OCC5(CN(C)C)CC5)nc4NCc4nnnn4C4CCC4)C3)c12 [Example 533, N-((1-cyclobutyl-1H-tetrazol-5-yl)methyl)-2-((1-((dimethylamino)methyl)cyclopropyl)methoxy)-7-(8-ethylnaphthalen-1-yl)-5,6,7,8-tetrahydropyrido[3,4-d]pyrimidin-4-amine] | 7360 | 2680 | 5970 | 7620 | 12300 | 3860 | 9980 | 4920
